Experimental data: ChEMBL document CHEMBL1130130, “New approaches to antiglaucoma therapy” (1997)

System: Oryctolagus cuniculus
Test: Compound was evaluated for ocular hypotensive effects (intraocular pressure, IOP) by administering 0.5% of the drug twice daily
Assay type: functional, Eye

In the case of `CC(C)(C)NC[C@H](O)COc1nsnc1N1CCOCC1` [TIMOLOL], the Activity is reported as 21%.
